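Dose response: 5 concentrations. Exposure: 48 h. Format: 96-well plates. Endpoint: linear interpolation; highest concentration if not reached. GI50 = concentration required for 50% inhibition of growth.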 Active and inactive are the calls of the source. Rule as the data show it: active = GI50 up to about 1.1 µM and inactive = higher.
Tests used:
Assay in all cases: NCI anticancer screen, dose series, 48 h
[1] = system: A498
[2] = system: A549
[3] = system: ACHN
[4] = system: DU-145
[5] = system: EKVX
[6] = system: HOP-62
[7] = system: K562
[8] = system: M14
[9] = system: Malme-3M
[10] = system: NCI-H226
[11] = system: NCI-H460
[12] = system: OVCAR-8
[13] = system: RXF 393
[14] = system: SK-MEL-28
[15] = system: SK-OV-3
[16] = system: SR
[17] = system: SW-620
[18] = system: TK-10
[19] = system: UACC-257
[20] = system: SNB-78

Measured: GI50

Cc1ccc(C)c(NC(=O)NCc2ccc(Cl)cc2)c1
inactive: [1] 20.8 µM | [2] > 100 µM | [3] 20.5 µM | [4] > 66.7 µM | [5] 97.9 µM | [6] 9.31 µM | [7] 47.5 µM | [8] 52.5 µM | [9] 26.8 µM | [10] 38.2 µM | [11] > 85.3 µM | [12] 34.9 µM | [13] 8.89 µM | [14] 97.5 µM | [15] 13.8 µM | [16] 13.8 µM | [17] 50.7 µM | [18] 20.5 µM | [19] 39.7 µM

Brc1ccc2c(-c3nc(-c4c[nH]c5ccccc45)cs3)c[nH]c2c1
inactive: [1] 22.7 µM | [2] 9.59 µM | [3] 43.1 µM | [4] 23.4 µM | [5] 12.7 µM | [6] > 45.8 µM | [7] 13.1 µM | [8] 51.6 µM | [9] > 100 µM | [10] 39 µM | [11] 11.8 µM | [12] 36.4 µM | [13] 17.6 µM | [14] > 27.8 µM | [15] > 100 µM | [16] 13.2 µM | [17] 35.4 µM | [18] 12.7 µM | [19] 69.2 µM

O=c1cc(O)cc2n1CCC2
inactive: [1] > 100 µM | [2] > 100 µM | [3] > 100 µM | [5] > 100 µM | [6] > 100 µM | [7] > 100 µM | [8] > 100 µM | [9] > 100 µM | [10] > 100 µM | [11] > 100 µM | [12] > 100 µM | [13] > 100 µM | [15] > 100 µM | [20] > 100 µM | [17] > 100 µM | [18] > 100 µM | [19] > 100 µM

Cn1ccnc1Sc1ccc(/C=N/c2ccc3nc(SCC(=O)NC4CCCCC4)sc3c2)cc1[N+](=O)[O-]
inactive: [1] 14.6 µM | [2] > 100 µM | [3] 16.6 µM | [4] > 100 µM | [5] > 100 µM | [6] 28.4 µM | [7] > 100 µM | [8] 38.2 µM | [9] > 100 µM | [10] > 100 µM | [11] > 100 µM | [12] > 100 µM | [13] 7.45 µM | [14] > 100 µM | [15] 20.2 µM | [16] > 100 µM | [17] > 100 µM | [18] 15.6 µM | [19] > 100 µM

CCOC(=O)C(=O)Nc1cccc(Cl)c1C
inactive: [2] > 100 µM | [3] > 100 µM | [5] > 100 µM | [6] > 100 µM | [7] > 100 µM | [8] > 100 µM | [9] > 100 µM | [10] > 100 µM | [11] > 100 µM | [12] > 100 µM | [13] > 100 µM | [14] > 100 µM | [15] > 100 µM | [20] > 100 µM | [17] > 100 µM | [18] > 100 µM | [19] > 100 µM

CC(=O)OCC1OC(n2c(-c3ccccc3)c(C(C)=O)c(-c3cccc4ccccc34)c(C#N)c2=S)C(OC(C)=O)C(OC(C)=O)C1OC(C)=O (centres undefined)
inactive: [1] > 100 µM | [2] > 100 µM | [3] > 100 µM | [4] > 100 µM | [5] 83.6 µM | [6] > 100 µM | [7] > 100 µM | [8] > 100 µM | [9] > 100 µM | [10] > 100 µM | [11] > 100 µM | [12] > 100 µM | [13] > 100 µM | [14] > 100 µM | [15] > 100 µM | [16] > 100 µM | [17] > 100 µM | [18] > 100 µM | [19] > 100 µM

CN(C)CCNC(=O)c1cnn(C)c1[N+](=O)[O-]
inactive: [1] > 100 µM | [2] > 100 µM | [3] > 100 µM | [4] > 100 µM | [5] > 100 µM | [6] > 100 µM | [7] > 100 µM | [8] > 100 µM | [9] 18.6 µM | [10] > 100 µM | [11] 77.4 µM | [12] > 100 µM | [13] 65.6 µM | [14] > 100 µM | [15] > 100 µM | [16] > 100 µM | [17] 79.6 µM | [18] > 100 µM | [19] 53 µM

COS(=O)(=O)OCCC(NC(=O)OCc1ccccc1)C(=O)OCc1ccccc1 (centres undefined)
inactive: [1] > 100 µM | [2] > 100 µM | [3] > 100 µM | [5] > 100 µM | [6] > 100 µM | [7] > 100 µM | [8] > 100 µM | [9] > 100 µM | [10] > 100 µM | [11] > 100 µM | [12] > 100 µM | [14] > 100 µM | [15] > 100 µM | [20] > 100 µM | [17] > 100 µM | [18] > 100 µM | [19] > 100 µM

O=C(N/N=C/c1cccc(O)c1O)N/N=C/c1cccc(O)c1O
inactive: [1] 32.1 µM | [2] 35.9 µM | [3] 13.9 µM | [5] 20.5 µM | [7] 6.97 µM | [8] 14 µM | [9] 22.4 µM | [10] 23.4 µM | [11] 30.1 µM | [12] 16.6 µM | [13] 19 µM | [14] 20.1 µM | [15] > 100 µM | [20] 34.8 µM | [17] 17.5 µM | [18] 29.4 µM | [19] 19.9 µM

O=C1c2ccccc2C(=O)N1NC1=NCCN1
inactive: [1] > 100 µM | [2] > 100 µM | [3] > 100 µM | [4] > 100 µM | [5] > 100 µM | [6] > 100 µM | [7] > 100 µM | [8] > 100 µM | [9] > 100 µM | [10] > 100 µM | [11] > 100 µM | [12] > 100 µM | [13] > 100 µM | [14] > 100 µM | [15] > 100 µM | [16] > 100 µM | [17] > 100 µM | [18] > 100 µM | [19] > 100 µM

COc1ccc(C2Cc3cc(OC)c(OC)c(OC)c3C2=O)cc1 (centres undefined)
inactive: [1] > 100 µM | [2] > 100 µM | [3] > 100 µM | [5] > 100 µM | [6] > 100 µM | [7] 80 µM | [8] > 100 µM | [9] > 100 µM | [10] > 100 µM | [11] > 100 µM | [12] > 100 µM | [14] > 100 µM | [15] > 100 µM | [20] > 100 µM | [17] > 100 µM | [18] > 100 µM | [19] > 100 µM

From ChEMBL document CHEMBL1201862, “PubChem BioAssay data set” (2004)
